The values below come from PubChem BioAssay AID1996.

The kinetic solubility is solubility judged after dilution from a stock solution rather than from solid.

Each structure is given as a SMILES string. ≈ marks a conversion by molar mass, not a printed value. A value given as a limit tells only on which side of the number the result lay.

For this data set the following is noted: buffer; pH 7.4; 200.0 µM.
`COCC(C)Nc1nc(C)c(C(C)=O)s1` (configuration not stated) displayed a kinetic solubility of over 34.2 µg/mL.

The molecule `COC(c1ccccc1)(c1ccccc1)C(Oc1nc(C)cc(C)n1)C(=O)O` (configuration not stated) came in with a kinetic solubility of over 56.8 µg/mL.

For the molecule `COC(=O)c1c(NC(C)=O)sc(C(=O)Nc2ccccc2)c1C`, the kinetic solubility was found to be 0.9 µg/mL (≈ 2.71 µM).

As for `CCN(CC)C(=S)SC1=CCS(=O)(=O)C1`, the kinetic solubility amounted to 26.8 µg/mL (≈ 101 µM).

As for `Cc1ncc(/C=C2\C(=O)Nc3ccccc32)[nH]1`, the solubility (kinetic) was 12.1 µg/mL (≈ 53.7 µM).

Regarding `O=C(CCl)c1cc2c3c(c1)CC(=O)N3CCC2`, the kinetic solubility is over 37.5 µg/mL.

On to `CC1CN(Cc2cnc(Cl)s2)CC(C)O1` (configuration not stated), for which the kinetic solubility worked out at 27.9 µg/mL (≈ 113 µM).

`CC1CCCC(NC(=O)COC(=O)c2cc3ccccc3oc2=O)C1C` (configuration not stated) showed a solubility (kinetic) of 33.3 µg/mL (≈ 93.2 µM).

In turn, `O=CN1CCN(c2c([N+](=O)[O-])c(=O)oc3ccccc23)CC1` showed a solubility (kinetic) of over 45.5 µg/mL.

Molecule `COC(=O)c1ccc(OCC(O)CN2CCOCC2)cc1` (configuration not stated) displayed a solubility (kinetic) of over 44.3 µg/mL.

The molecule `CCN(C(=S)NC(=O)C1CCCC1)C1CCCCC1` came in with a kinetic solubility of over 42.4 µg/mL.

Turning to `Cc1nc(Nc2ccccc2)c2oc3ccc(Cl)cc3c2n1`, the kinetic solubility is under 0.2 µg/mL.

In the case of `Nc1cc(N)nc(SCc2ccc(Cl)cc2)n1`, the solubility (kinetic) is over 40 µg/mL.

`Cc1ccc(Nc2nc(N)c([N+](=O)[O-])c(NCc3ccccc3)n2)cc1` returned a kinetic solubility of 0.3 µg/mL (≈ 0.856 µM).

`C#CCN(CC=C)C(=O)c1ccc2nc(C3CCCCC3)oc2c1` returned a solubility (kinetic) of 43.5 µg/mL (≈ 135 µM).

Molecule `CCc1ccc(NC(=O)c2cc(C)no2)cc1` gave a kinetic solubility of 14.3 µg/mL (≈ 62.1 µM).

Take `COc1ccc(Nc2ccc([N+](=O)[O-])cn2)cc1`: the kinetic solubility was 3 µg/mL (≈ 12.2 µM).

With `O=C(O)CC(NS(=O)(=O)c1ccc2c(c1)OCCO2)c1ccccc1[N+](=O)[O-]` (configuration not stated), the solubility (kinetic) was over 61.3 µg/mL.

`COc1ccc(C(=O)Nc2nc3ccccc3s2)cc1` showed a kinetic solubility of under 0.3 µg/mL.

As to `O=C(OCC(=O)c1ccc[nH]1)c1ccc(Br)cc1`, the kinetic solubility was 7.2 µg/mL (≈ 23.4 µM).

In the case of `CC(=O)Nc1ccc(OCC(=O)Nc2ccc(Cl)c(S(=O)(=O)N3CCOCC3)c2)cc1`, the kinetic solubility is 10.7 µg/mL (≈ 22.9 µM).

`Cc1cc(C)c(N2C(=O)CCCC2=O)c(Cl)c1` yielded a kinetic solubility of over 37.8 µg/mL.

Molecule `CC(=O)c1c(C)[nH]c(C(=O)Nc2nc(C)cs2)c1C` gave a kinetic solubility of 4.1 µg/mL (≈ 14.8 µM).

`Cc1ccc(C)c(OCC(=O)Nc2ccncc2)c1` showed a solubility (kinetic) of 37 µg/mL (≈ 144 µM).

`Cc1c(C(=O)Nc2ccccn2)oc2c(Cl)cccc12` had a solubility (kinetic) of 9.4 µg/mL (≈ 32.8 µM).

`COc1cc(C=O)ccc1OCC(=O)N1CCCC1` returned a solubility (kinetic) of over 39.5 µg/mL.

The molecule `CCOc1ccc(S(=O)(=O)N2CCN(C(=O)c3cc4ccccc4o3)CC2)cc1` had a kinetic solubility of 6 µg/mL (≈ 14.5 µM).

Take `Cc1cccc(NC(=O)CCN2CCCCC2)c1.Cl`: the solubility (kinetic) is over 42.4 µg/mL.

On to `Cc1ccc2nc(COC(=O)c3ccc(Cl)nc3)cc(=O)n2c1`, for which the solubility (kinetic) came out at 7.3 µg/mL (≈ 22.1 µM).

In turn, `CC1CCc2cc(F)ccc2N1C(=O)CCl` (configuration not stated) registered a kinetic solubility of over 36.3 µg/mL.

For the molecule `COc1ccc(NC(C)=O)cc1C#N`, the kinetic solubility turned out to be 24.5 µg/mL (≈ 129 µM).

`O=C(Nc1ccc(Cl)cc1)NC1CCCCNC1=O` (configuration not stated): the solubility (kinetic) is over 42.3 µg/mL.

Regarding `CCOc1ccc(CCNC(=O)c2cnccn2)cc1OCC`, the kinetic solubility was over 47.3 µg/mL.

The molecule `COc1cc(CCC(=O)Nc2ncc(C)s2)cc(OC)c1OC` had a kinetic solubility of 18.8 µg/mL (≈ 55.9 µM).

`Cc1cc(C(=O)NC(C)CCc2ccccc2)ccc1[N+](=O)[O-]` (configuration not stated) had a kinetic solubility of 4 µg/mL (≈ 12.8 µM).

As to `NC(=O)CSc1nnc(NC(=O)c2ccc(Br)o2)s1`, the solubility (kinetic) is over 54.5 µg/mL.

`CCN(CC)c1ccc(C=Nc2cccc(S(=O)(=O)N3CCOCC3)c2)c(O)c1` gave a kinetic solubility of 8.3 µg/mL (≈ 19.9 µM).

The molecule `COc1ccc(CN(C)C(=O)c2ccc3ccccc3n2)cc1F` gave a solubility (kinetic) of over 48.7 µg/mL.

Consider `COc1ccc(NC(=O)C2C3C=CC(C3)C2C(=O)O)cc1` (configuration not stated), for which the kinetic solubility is over 43.1 µg/mL.

Turning to `CC(=O)OC1CCC2(/C=N/O)C(=CCC3C4CCC(=O)C4(C)CCC32)C1` (configuration not stated), the solubility (kinetic) is over 53.9 µg/mL.

Regarding `Cc1ccc(/C=C/C(=O)O)cc1S(=O)(=O)N1CCC(Cc2ccccc2)CC1`, the kinetic solubility turned out to be 53.2 µg/mL (≈ 133 µM).

For `CNc1ccc(Oc2c(F)c(F)nc(F)c2F)cc1`, the kinetic solubility amounted to 6 µg/mL (≈ 22 µM).

Turning to `O=C(Nc1ccc(Cl)cc1Cl)c1ccc2ncsc2c1`, the kinetic solubility was 0.4 µg/mL (≈ 1.24 µM).

Molecule `O=C(Nc1cccc(C(=O)Nc2ccc(Cl)cn2)c1)c1ccccc1` displayed a solubility (kinetic) of 0.7 µg/mL (≈ 1.99 µM).

`Cc1cc(C)c(C(=O)NNC(=O)c2cccnc2)c(C)c1` displayed a kinetic solubility of over 42.5 µg/mL.

`CCOc1ccccc1N1C(=O)CC(=O)NC1=O` yielded a solubility (kinetic) of over 37.2 µg/mL.

The molecule `CC(C)CNC(=S)N1CCC(C(=O)c2ccc(F)cc2)CC1` had a kinetic solubility of over 48.4 µg/mL.

`Cc1nc2ccccc2c2c(N)c3ccccc3n12` had a kinetic solubility of 16.4 µg/mL (≈ 66.3 µM).

In turn, `O=C(O)CCSc1nc2ccccc2n1-c1ccccc1` gave a kinetic solubility of over 44.8 µg/mL.

The molecule `COC(=O)c1sccc1NC(=O)c1ccc(C)cc1` displayed a solubility (kinetic) of under 0.6 µg/mL.

As to `CCOc1ccc(NC(=O)c2ccc(CN3CCc4ccccc4C3)cc2)cc1`, the kinetic solubility is under 0.4 µg/mL.

In turn, `O=C(COc1ccccc1)OCC(=O)c1c[nH]c2ccccc12` displayed a kinetic solubility of 8.9 µg/mL (≈ 28.8 µM).
